Experiments:
[1] = tested on: control sera (pooled serum of ten healthy LUMC hospital workers; commercial negative donor pooled serum from the Dutch bloodbank); assay type: binding, human; set-up: Binding of Control serum LUMC to linear peptides / Binding of Control serum Blood-bank to linear peptides / Binding of Control serum LUMC to looped peptides / Binding of Control Serum Blood-Bank to Looped peptides / Binding of Control serum LUMC to linear peptides of the protein M of SARS-CoV Urbani / Binding of Control serum Blood-bank to linear peptides of the protein M of SARS-CoV Urbani / Binding of Control serum LUMC to looped peptides of the protein M of SARS-CoV Urbani / Binding of Control Serum Blood-Bank to Looped peptides of the protein M of SARS-CoV Urbani: unit not given here
[2] = tested on: rabbit serum obtained by immunizing a rabbit with the SARS-CoV strain Frankfurt 1; assay type: binding; set-up: Binding of a rabbit serum to linear peptides / Binding of a rabbit serum to looped peptides / Rabbit serum linear peptides / Rabbit serum looped peptides / Binding of a rabbit serum to linear peptides of protein N of SARS-CoV Urbani (Rabbit serum linear peptides) / Binding of a rabbit serum to looped/cyclic peptides of protein N of SARS-CoV Urbani (Rabbit serum looped peptides): unit not given here
[3] = tested on: antibodies in sera from SARS patients (sera 1a, 1b, 2, 6, 37, 62, London, SARS-yellow, SARS-green); assay type: binding, human; set-up: Binding of serum 6 to linear peptides of protein X1 of SARS-CoV Urbani / Binding of serum 37 to linear peptides of protein X1 of SARS-CoV Urbani / Binding of serum 6 to looped/cyclic peptide (PEPSCAN-ELISA) / Binding of serum 37 to looped/cyclic peptide (PEPSCAN-ELISA) / Binding of serum 37 to looped/cyclic peptides of protein X1 of SARS-CoV Urbani / Binding of serum 6 to linear peptides of protein X2 / Binding of serum 37 to linear peptides of protein X2 / Binding of serum 37 to looped/cyclic peptides of protein X2 of SARS-CoV Urbani / Binding of serum 6 to linear peptides of protein M of SARS-CoV Urbani / Binding of serum 37 to linear peptides of protein M of SARS-CoV Urbani / Binding of serum 6 to looped/cyclic peptides of protein M of SARS-CoV Urbani / Binding of serum 37 to looped/cyclic peptides of protein M of SARS-CoV Urbani / Binding of serum 6 to linear peptides of protein X3 of SARS-CoV Urbani / Binding of serum 37 to linear peptides of protein X3 of SARS-CoV Urbani / Binding of serum 37 to looped/cyclic peptides of protein X3 of SARS-CoV Urbani / Binding of serum 6 to linear peptides of protein X4 of SARS-CoV Urbani / Binding of serum 37 to linear peptides of protein X4 of SARS-CoV Urbani / Binding of serum 37 to looped/cyclic peptides of protein X4 of SARS-CoV Urbani / Binding of serum 6 to linear peptides of protein X5 of SARS-CoV Urbani / Binding of serum 37 to linear peptides of protein X5 of SARS-CoV Urbani / Binding of serum 37 to looped/cyclic peptides of protein X5 of SARS-CoV Urbani / Binding of serum 6 to linear peptides of protein N of SARS-CoV Urbani / Binding of serum 37 to linear peptides of protein N of SARS-CoV Urbani / Binding of serum 6 to linear peptide (PEPSCAN-ELISA) / Binding of serum 1a to looped/cyclic peptides of protein N of SARS-CoV Urbani / Binding of serum 1b to looped/cyclic peptides of protein N of SARS-CoV Urbani / Binding of serum 2 to looped/cyclic peptides of protein N of SARS-CoV Urbani / Binding of serum 6 to looped/cyclic peptides of protein N of SARS-CoV Urbani / Binding of serum 37 to looped/cyclic peptides of protein N of SARS-CoV Urbani / Binding of serum 62 to looped/cyclic peptides of protein N of SARS-CoV Urbani / Binding of serum London to looped/cyclic peptides of protein N of SARS-CoV Urbani / Binding of serum SARS-green to looped/cyclic peptides of protein N of SARS-CoV Urbani: unit not given here
[4] = tested on: recombinant human anti-SARS-CoV antibody 03-018; assay type: binding; set-up: Binding of antibody 03-018 to linear peptides of the N protein of SARS-CoV Urbani / Binding of antibody 03-018 to looped/cyclic peptides of the N protein of SARS-CoV Urbani: unit not given here

Sequence	Binding of a rabbit serum to linear peptides of protein N of SARS-CoV Urbani (Rabbit serum linear peptides) [2]	Binding of a rabbit serum to looped/cyclic peptides of protein N of SARS-CoV Urbani (Rabbit serum looped peptides) [2]	Binding of serum 1a to linear peptides of protein N of SARS-CoV Urbani [3]	Binding of serum 1a to looped/cyclic peptides of protein N of SARS-CoV Urbani [3]	Binding of serum 1b to linear peptides of protein N of SARS-CoV Urbani [3]	Binding of serum 1b to looped/cyclic peptides of protein N of SARS-CoV Urbani [3]	Binding of serum 2 to linear peptides of protein N of SARS-CoV Urbani [3]	Binding of serum 2 to looped/cyclic peptides of protein N of SARS-CoV Urbani [3]	Binding of serum 6 to linear peptides of protein N of SARS-CoV Urbani [3]	Binding of serum 6 to looped/cyclic peptides of protein N of SARS-CoV Urbani [3]	Binding of serum 37 to linear peptides of protein N of SARS-CoV Urbani [3]	Binding of serum 37 to looped/cyclic peptides of protein N of SARS-CoV Urbani [3]	Binding of serum 62 to linear peptides of protein N of SARS-CoV Urbani [3]	Binding of serum 62 to looped/cyclic peptides of protein N of SARS-CoV Urbani [3]	Binding of serum London to linear peptides of protein N of SARS-CoV Urbani [3]	Binding of serum London to looped/cyclic peptides of protein N of SARS-CoV Urbani [3]	Binding of serum SARS-green to linear peptides of protein N of SARS-CoV Urbani [3]	Binding of serum SARS-green to looped/cyclic peptides of protein N of SARS-CoV Urbani [3]	Binding of serum SARS-yellow to linear peptides of protein N of SARS-CoV Urbani [3]	Binding of serum SARS-yellow to looped/cyclic peptides of protein N of SARS-CoV Urbani [3]	further results
TALTQHGKEELRFPR	0.1	0.4	0.2	0.4	0.1	0.3	0.2	0.6	0.1	0.5	0.7	0.8	0.6	0.6	0.5	0.6	0.4	0.7	0.5	0.7	Binding of Control Serum Blood-Bank to Looped peptides [1]: 0.8; Binding of Control serum Blood-bank to linear peptides [1]: 0.8; Binding of Control serum LUMC to linear peptides [1]: 0.6; Binding of Control serum LUMC to looped peptides [1]: 0.8; Binding of antibody 03-018 to linear peptides of the N protein of SARS-CoV Urbani [4]: 0.1; Binding of antibody 03-018 to looped/cyclic peptides of the N protein of SARS-CoV Urbani [4]: 0.3
TASWFTALTQHGKEE	0.1	0.7	0.2	0.2	0.1	0.1	0.1	0.1	0.1	0.1	0.7	0.4	0.4	0.2	0.4	0.3	0.3	0.1	0.5	0.2	Binding of Control Serum Blood-Bank to Looped peptides [1]: 0.4; Binding of Control serum Blood-bank to linear peptides [1]: 0.6; Binding of Control serum LUMC to linear peptides [1]: 0.5; Binding of Control serum LUMC to looped peptides [1]: 0.3; Binding of antibody 03-018 to linear peptides of the N protein of SARS-CoV Urbani [4]: 0.1; Binding of antibody 03-018 to looped/cyclic peptides of the N protein of SARS-CoV Urbani [4]: 0.2
TDEAQPLPQRQKKQP	0.1	0.0	0.2	0.2	0.2	0.0	0.3	0.2	0.2	0.1	0.7	0.1	0.7	0.0	1.2	0.1	0.7	0.0	1.0	0.1	Control Serum Blood-Bank Looped peptides [1]: 0.5; Control serum Blood-bank linear peptides [1]: 0.7; Control serum LUMC linear peptides [1]: 0.6; Control serum LUMC looped peptides [1]: 0.2; Binding of antibody 03-018 to linear peptides of the N protein of SARS-CoV Urbani [4]: 0.1; Binding of antibody 03-018 to looped/cyclic peptides of the N protein of SARS-CoV Urbani [4]: 0.1

Reference: patent US20070128217A1 (priority 2003, published 2007)
